In ChEMBL document CHEMBL1136828, “Macrocyclic inhibitors of the bacterial cell wall biosynthesis enzyme MurD” (Bioorg Med Chem Lett, 2003):

Assay: Inhibitory activity against enzyme MurD isolated from Escherichia coli

With `C[C@@H]1NC(=O)CCCCCCC[C@H](C(=O)O)NC(=O)[C@H](C)NC1=O` the IC50 was 1500 nM.
In the case of `C[C@@H]1NC(=O)CCCCCC[C@@H](C(=O)O)NC(=O)[C@H](C)NC1=O`, the IC50 is reported as 5100 nM.
For `C[C@@H]1NC(=O)[C@H](COC(C)(C)C)NC(=O)CCCCCC[C@@H](C(=O)O)NC1=O`, the IC50 was 9000 nM.
With `C[C@@H]1NC(=O)[C@H](COC(C)(C)C)NC(=O)CCCCCC[C@H](C(=O)O)NC1=O` the IC50 was 1900 nM.
For `C[C@@H]1NC(=O)[C@H](CO)NC(=O)CCCCCC[C@H](C(=O)O)NC1=O`, the IC50 was 700 nM.
With `C[C@@H]1NC(=O)CCCCCCC[C@@H](C(=O)O)NC(=O)[C@H](C)NC1=O` the IC50 was 3200 nM.
`C[C@@H]1NC(=O)CCCCCC[C@H](C(=O)O)NC(=O)[C@H](C)NC1=O` showed an IC50 of 1500 nM.
`C[C@@H]1NC(=O)[C@H](CO)NC(=O)CCCCCC[C@@H](C(=O)O)NC1=O` showed an IC50 of 2300 nM.
